Patent US11596636B2, “Tailored combinatorial epigenetic therapies for P53 gain-of-function tumors” (The Trustees of the University of Pennsylvania, priority 2014, dated 2023)

Experiments:
[1] = target: T1, menin-MLL1 interaction (His-SUMO-Menin-Δ460-519, FITC-MLL peptide) (Homo sapiens, UniProt O00255, DEL460-519); assay: Fluorescence polarization competition assay, FITC-MLL peptide displacement from menin; assay type: binding; conditions: FITC-MLL peptide 1.5 nM, His-SUMO-Menin-Δ460-519 5 nM
T1 construct: made in house; host or cells: Rosetta (DE3-pLysS) E. coli
T1 sequence (O00255 with tags, fused parts or gaps DEL460-519): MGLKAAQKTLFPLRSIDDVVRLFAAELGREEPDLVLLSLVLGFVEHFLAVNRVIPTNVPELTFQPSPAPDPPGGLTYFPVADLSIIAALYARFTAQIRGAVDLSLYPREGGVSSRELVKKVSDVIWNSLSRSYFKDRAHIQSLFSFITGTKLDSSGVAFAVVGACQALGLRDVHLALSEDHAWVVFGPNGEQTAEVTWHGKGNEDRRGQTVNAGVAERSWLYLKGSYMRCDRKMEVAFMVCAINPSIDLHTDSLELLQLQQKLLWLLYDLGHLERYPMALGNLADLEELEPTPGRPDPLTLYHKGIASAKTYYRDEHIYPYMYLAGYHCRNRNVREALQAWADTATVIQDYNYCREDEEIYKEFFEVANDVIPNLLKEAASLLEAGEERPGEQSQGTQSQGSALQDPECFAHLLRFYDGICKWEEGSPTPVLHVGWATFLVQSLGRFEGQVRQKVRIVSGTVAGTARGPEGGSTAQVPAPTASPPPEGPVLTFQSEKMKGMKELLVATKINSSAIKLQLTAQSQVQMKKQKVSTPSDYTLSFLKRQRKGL
Method: (§1) FIG. 15, comprising FIG. 15A through FIG. 15G, depicts the results of example experiments. (FIG. 15A) Chemical structure of ISC-30 compound [N,N′-bis(4-aminophenyl)-N,N′-dimethylethylenediamine]. (CID: 193110, NCI: 129674, Chemical formula: C16H22N4 Molecular weight: 270.37) (FIG. 15B) His-SUMO-MeninΔ460-519 (Menin) was titrated into wells containing fluorescence polarization buffer and FITC-MLL peptide (1.5 nM) to allow fluorescence polarization monitoring and calculation of the binding affinity. (FIG. 15C) Wild-type (WT) or Mutant (Mut) competitor MLL peptides were titrated into wells containing fluorescence polarization butter, His-SUMO-MeninΔ460-519 (5 nM), and FITC-MLL peptide (1.5 nM) and the inhibition of fluorescence polarization was monitored and utilized to normalize the ISC30 inhibition. All measurements were blanked by subtracting the background signal taken from wells containing only buffer. mP=millipolarization. (FIG. 15D) Peptide displacement assay measuring ISC-30 inhibition of menin-MLL1 interaction by the decrease in fluorescence polarization (FP) signal of a FITC labeled MLL1 peptide upon ISC-30 induced dissociation from menin. […]
ISC30 was titrated into the wells of a 384-well plate containing fluorescence polarization buffer (40 mM HEPES pH 7.9, 150 mM NaCl, 0.01% Triton-X-100, 10 mM 2-mercaptoethanol), FITC-MLL peptide (1.5 nM), and His-SUMO-Menin-Δ460-519 (5 nM). […]

[2] = target: T2, menin-MLL1 interaction in MDAH041 cells (p53 null) (Homo sapiens, UniProt O00255); assay: Endogenous co-IP of Menin and MLL1 in LFS MDAH041 cells; assay type: cell-based; conditions: different concentrations, vs DMSO
T2 construct: endogenous in cells; host or cells: LFS MDAH087 (p53 R248W) and MDAH041 (p53 null) cells
T2 sequence (O00255 1-610): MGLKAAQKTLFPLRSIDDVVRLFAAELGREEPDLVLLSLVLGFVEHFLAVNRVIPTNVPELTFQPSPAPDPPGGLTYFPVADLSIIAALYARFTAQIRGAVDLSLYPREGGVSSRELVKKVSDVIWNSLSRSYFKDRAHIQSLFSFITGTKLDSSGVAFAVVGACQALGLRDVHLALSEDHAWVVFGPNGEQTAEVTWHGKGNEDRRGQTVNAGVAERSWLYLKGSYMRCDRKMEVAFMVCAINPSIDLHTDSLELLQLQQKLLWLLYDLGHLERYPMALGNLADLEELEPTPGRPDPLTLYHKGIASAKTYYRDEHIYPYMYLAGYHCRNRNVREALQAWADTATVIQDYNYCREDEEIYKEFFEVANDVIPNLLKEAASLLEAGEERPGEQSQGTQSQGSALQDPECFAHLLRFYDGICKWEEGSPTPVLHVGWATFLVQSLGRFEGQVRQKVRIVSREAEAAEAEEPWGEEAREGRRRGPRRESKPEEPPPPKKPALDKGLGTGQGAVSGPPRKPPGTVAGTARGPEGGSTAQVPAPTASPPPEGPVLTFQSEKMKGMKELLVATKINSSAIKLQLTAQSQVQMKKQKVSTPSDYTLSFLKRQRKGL

[3] = target: T3, menin-MLL1 interaction in MDAH087 cells (p53 GOF) (Homo sapiens, UniProt O00255); assay: Endogenous co-IP of Menin and MLL1 in LFS MDAH087 cells; assay type: cell-based; conditions: different concentrations, vs DMSO
T3 construct: endogenous in cells; host or cells: LFS MDAH087 (p53 R248W) and MDAH041 (p53 null) cells
T3 sequence (O00255 1-610): T2 sequence (O00255 1-610)
Method: (FIG. 10A) Endogenous co-IP of Menin and MLL1 in LFS MDAH087 cells upon treatment of DMSO or different concentrations of ISC-30. (FIG. 10B) & (FIG. 10C) Growth curve analysis of LFS (FIG. 10B) MDAH087 and (FIG. 10C) MDAH041 cells treated with DMSO, […] ISC-30 Menin inhibitor. (FIG. 10D) & (FIG. 10E) Growth curve analysis of LFS (FIG. 10D) MDAH087 and (FIG. 10E) MDAH041 cells treated with DMSO, […], or 20 μM MI-2-2 Menin inhibitor. (FIG. 10F) and (FIG. 10G) Growth curve analysis of LFS (FIG. 10F) MDAH087 and (FIG. 10G) MDAH041 cells treated with DMSO, 2 μM, or 4 μM OICR-9429 WDR5 inhibitor.
Flag tagged ETS2 protein was expressed in HEK293T cells, which was then subjected to immunoprecipitation with Flag antibody conjugated Dynabeads. Then after washes, HA tagged WT or GOF p53 (generated by in vitro translation method (Thermo #88881)) was added to co-immunoprecipitate with Flag-ETS2. Endogenous co-IP experiments were performed in buffer containing: 20 mM Tris, pH 8.0, 137 mM NaCl, 1 mM MgCl2, 1 mM CaCl2, 1% NP-40, 10% glycerol, plus complete protease and phosphatase inhibitor (without EDTA), plus 12.5 U/ml benzonase (Novagen, 70746).

MDAH041 cells (p53 null) = assay: Growth curve analysis of LFS MDAH041 cells; assay type: cell-based, human; conditions: OICR-9429 2 μM or 4 μM, vs DMSO
Method: (§2) (FIG. 10A) Endogenous co-IP of Menin and MLL1 in LFS MDAH087 cells upon treatment of DMSO or different concentrations of ISC-30.
(§3) Li-Fraumeni Syndrome cell lines MDAH087 and MDAH041 were obtained from Dr. Michael A. Tainsky (Wayne State University, Detroit, Mich.) as a kind gift, and were cultured at 3% oxygen, in standard tissue culture medium.
(§4) 200,000 cells were seeded on 950 mm^2 surface area (one well of 6-well plate) on Day 0. Cell number was measured every two days with Countess Automated Cell Counter (Life Technologies) following its standard procedure, and then 200,000 cells were plated back for the next counting. For shRNA mediated knockdown experiments, cells were seeded seven days after the initial infection of shRNA-containing lentivirus, during which puromycin selection was completed and cells were already put back to normal growth medium. For small compound inhibitor treatment experiments, inhibitors were added on Day 0 as cells were seeded and refreshed every other day as cells were counted and plated back.

[4] = test system: Hoxa cluster genes in AT-1 cells (MLL-AF9 leukemia cell line); assay: HoxA5 and HoxA9 mRNA levels in AT-1 cells; assay type: cell-based, mouse; conditions: after 2 days of treatment, vs DMSO
Method: as §1, with “menin. (FIG. 15E) HoxA5 and HoxA9 mRNA levels after 2 days of ISC-30 or DMSO (vehicle control) treatment in AT-1 cells (mouse MLL-AF9 leukemia cell line). (FIG. 15F) Growth analysis of AT-1 cells treated with DMSO or 10 μM ISC-30.” for “menin.”

[5] = test system: MDAH087 cells (p53 R248W, GOF p53); assay: Growth curve analysis of LFS MDAH087 cells; assay type: cell-based, human; conditions: OICR-9429 2 μM or 4 μM, vs DMSO
Method: as §2, §3, §4

[6] = test system: AT-1 cells (MLL-AF9 leukemia cell line); assay: Growth analysis of AT-1 cells; assay type: cell-based, mouse; conditions: 10 μM ISC-30 vs DMSO
Method: as §1, with “All measurements were blanked by subtracting the background signal taken from wells containing only buffer. mP=millipolarization.” left out
200,000 cells were seeded on 950 mm^2 surface area (one well of 6-well plate) on Day 0. Cell number was measured every two days with Countess Automated Cell Counter (Life Technologies) following its standard procedure, and then 200,000 cells were plated back for the next counting. […]

[7] = test system: mll1 in MCF7 cells (WT p53); assay: mll1 mRNA (RT-qPCR) and MLL1 protein (western blot) upon Nutlin treatment in MCF7 cells; conditions: Nutlin vs DMSO
From the text: (FIG. 13B) RT-qPCR analysis of mRNA expression level changes upon DMSO or Nutlin treatment in MCF7 cells. (FIG. 13C) Western blot analysis of MLL1 protein levels upon DMSO or Nutlin treatment in MCF7 cells.

[8] = test system: H3K9ac in MDA468 cells (p53 R273H); assay: Western blot of H3K9ac in MDA468 cells with mutant p53 knockdown; assay type: cell-based, human; conditions: etoposide treatment
From the text: FIG. 4A depicts western blots depicting changes in histone modification (H3K4me3 and H3K9ac) in MDA468 cell line in response to control or p53 knockdown. FIG. 4B depicts the change in the abundance of H3K4me3 and H3K9ac following p53 GOF mutant knockdown, as well as the functional implication that the Rho and Ras pathways are most affected by p53 GOF mutant knockdown.
Experiments were next conducted to evaluate the functional outcomes of the p53 GOF regulation of histone modification. FIG. 4A (left) depicts a Western blot analysis of the MDA468 cell line in response to control or p53 knockdown. It is shown that H3K9Ac decreases in response to knockdown of mutant p53, but no other histone modifications appear to be affected.

CN(CCN(C)c1ccc(N)cc1)c1ccc(N)cc1 [ISC-30, N,N′-bis(4-aminophenyl)-N,N′-dimethylethylenediamine]
concentration at which the compound started to inhibit menin-MLL1 interaction [1]: approximately 2 μM | IC50 ([1]; normalized IC50, read-out: IC50, inhibition of menin-MLL1 interaction): 32 µM | menin-MLL1 interaction at endogenous levels (co-IP) [2]: blocked menin-MLL1 interaction at endogenous levels in a dose-dependent manner | menin-MLL1 interaction at endogenous levels (co-IP) [3]: blocked menin-MLL1 interaction at endogenous levels in a dose-dependent manner | p53 null cell growth (MDAH041 cells (p53 null)): very little effect | expression of Hoxa cluster genes (HoxA5 and HoxA9 mRNA levels) [4]: decreased expression of Hoxa cluster genes | GOF p53 cell growth [5]: dose-dependent inhibition | growth of AT-1 cells [6]: reduced

CC1(C)CN=C(N2CCN(c3ncnc4sc(CC(F)(F)F)cc34)CC2)S1 [MI-2-2]
GOF p53 cell growth [5]: dose-dependent inhibition

COc1ccc(C2=NC(c3ccc(Cl)cc3)C(c3ccc(Cl)cc3)N2C(=O)N2CCNC(=O)C2)c(OC(C)C)c1 (stereo not shown) [Nutlin]
mll1 expression upon stabilization and elevation of WT p53 levels [7]: not upregulated

CN1CCN(c2ccc(-c3cccc(CN4CCOCC4)c3)cc2NC(=O)c2c[nH]c(=O)cc2C(F)(F)F)CC1 [OICR-9429]
p53 null cell growth (MDAH041 cells (p53 null)): little effect | GOF p53 cell growth [5]: dose-dependent inhibition

COc1cc([C@@H]2c3cc4c(cc3[C@@H](O[C@@H]3O[C@@H]5CO[C@@H](C)O[C@H]5[C@H](O)[C@H]3O)[C@H]3COC(=O)[C@H]23)OCO4)cc(OC)c1O [etoposide]
loss of H3K9ac in response to knockdown of mutant p53 [8]: not affected
